# Article PMC10196118, “Evidence for broad cross-reactivity of the SARS-CoV-2 NSP12-directed CD4^+ T-cell response with pre-primed responses directed against common cold coronaviruses” (Frontiers in Immunology, 2023)
# Experiments:
# [1] = molecular target: HLA DRB1*04:01 (Homo sapiens, UniProt P01903+P01911, A100K/A169T/F76Y/I96L/K127E/L162R/M171V/N62H/P40V/Q125Y/R42H/S133A/S149N/S66Y/V115G/V209L/W38E); test: biochemical; type: binding; conditions: binder threshold 1,000 nM, read-out: In vitro (IC50 nM) DRB1*04:01
# [2] = molecular target: HLA DRB1*09:01 (Homo sapiens, UniProt P01903+P01911, A100R/A103E/D57H/D86V/F55Y/F60I/F76Y/I96F/K127E/L162R/M171V/P40D/Q125H/Q99R/R33Q/R42F/S133A/S66N/T210M/V115G/W38K/Y107V/Y59G/Y89S); test: biochemical; type: binding; conditions: binder threshold 1,000 nM, read-out: In vitro (IC50 nM) DRB1*09:01
# [3] = molecular target: HLA DRB1*01:01 (Homo sapiens, UniProt P01903+P01911, A100R/D57E/F55L/F60I/F76Y/I96L/L162R/M171V/P40L/Q125E/R42F/V115G/Y59C); test: biochemical; type: binding; conditions: binder threshold 1,000 nM, read-out: In vitro (IC50 nM) DRB1*01:01
# [4] = molecular target: HLA DRB1*08:02 (Homo sapiens, UniProt P01903+P01911, A100R/A103L/A169T/F76Y/H45Y/I96F/K41T/L162R/M171V/P40S/Q125H/Q178H/Q39Y/Q99D/R218S/R42G/S66Y/V115G/W38E); test: biochemical; type: binding; conditions: binder threshold 1,000 nM, read-out: In vitro (IC50 nM) DRB1*08:02
# [5] = molecular target: HLA DRB1*11:01 (Homo sapiens, UniProt P01903+P01911, A100R/A169T/A87E/I96F/K41T/L162R/M171V/P40S/Q125H/Q178H/Q39Y/Q99D/R42S/S66Y/T262R/V115G/W38E); test: biochemical; type: binding; conditions: binder threshold 1,000 nM, read-out: In vitro (IC50 nM) DRB1*11:01
# [6] = molecular target: HLA DRB1*12:01 (Homo sapiens, UniProt P01903+P01911, A100R/A169T/D57E/D86V/F55L/H45Y/K41T/L162R/M171V/P40S/Q125H/Q178H/Q39Y/Q99D/R42G/S66L/T262R/V114A/V67L/W38E/Y59H/Y61H/Y89S); test: biochemical; type: binding; conditions: binder threshold 1,000 nM, read-out: In vitro (IC50 nM) DRB1*12:01
# [7] = molecular target: HLA DRB1*15:01 (Homo sapiens, UniProt P01903+P01911); test: biochemical; type: binding; conditions: binder threshold 1,000 nM, read-out: In vitro (IC50 nM) DRB1*15:01
# [8] = molecular target: HLA DRB1*07:01 (Homo sapiens, UniProt P01903+P01911, A100R/A102G/A103Q/D57E/D86V/E43K/F76Y/K127E/L162R/M171V/P40G/Q125H/Q99D/R33Q/R42Y/R54Q/S133A/S66F/T210M/V115G/Y107V/Y59L/Y89S); test: biochemical; type: binding; conditions: binder threshold 1,000 nM, read-out: In vitro (IC50 nM) DRB1*07:01
# [9] = system: pre-cultured PBMCs (NSP12-specific T cells); test: IFN-γ ELISpot with single 15-mer peptides after 11–13 days in vitro peptide-pool T-cell expansion; type: cell-based, human; conditions: for peptide-specific response, donor HH-N12-18, post COVID-19 / peptide-specific response, donor HH-N12-18, pre COVID-19 / peptide-specific response, donor HH-N12-34, post COVID-19 / peptide-specific response, donor HH-N12-34, pre COVID-19 / peptide-specific response, donor HH-N12-35, post COVID-19 / peptide-specific response, donor HH-N12-35, pre COVID-19 / peptide-specific response, donor HH-N12-36, post COVID-19 / peptide-specific response, donor HH-N12-36, pre COVID-19 / peptide-specific response, donor HH-N12-37, post COVID-19 / peptide-specific response, donor HH-N12-37, pre COVID-19: single NSP12 15-mer peptides
# [10] = donor HH-N12-18, sample post COVID-19
# [11] = donor HH-N12-18, sample pre COVID-19
# [12] = donor HH-N12-34, sample post COVID-19
# [13] = donor HH-N12-34, sample pre COVID-19
# [14] = donor HH-N12-35, sample post COVID-19
# [15] = donor HH-N12-35, sample pre COVID-19
# [16] = donor HH-N12-36, sample post COVID-19
# [17] = donor HH-N12-36, sample pre COVID-19
# [18] = donor HH-N12-37, sample post COVID-19
# [19] = donor HH-N12-37, sample pre COVID-19
# HLA DRB1*11:01, sequence (P01903 26-254, other chains not shown): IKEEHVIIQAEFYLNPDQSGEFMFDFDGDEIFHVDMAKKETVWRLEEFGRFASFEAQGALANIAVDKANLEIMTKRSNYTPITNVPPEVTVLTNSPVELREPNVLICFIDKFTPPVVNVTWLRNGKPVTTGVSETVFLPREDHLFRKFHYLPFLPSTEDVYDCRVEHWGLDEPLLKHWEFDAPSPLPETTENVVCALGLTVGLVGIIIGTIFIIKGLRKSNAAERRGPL
Molecule,"peptide-specific response, donor HH-N12-18, post COVID-19 [9, 10]","peptide-specific response, donor HH-N12-18, pre COVID-19 [9, 11]","peptide-specific response, donor HH-N12-34, post COVID-19 [9, 12]","peptide-specific response, donor HH-N12-34, pre COVID-19 [9, 13]","peptide-specific response, donor HH-N12-35, post COVID-19 [9, 14]","peptide-specific response, donor HH-N12-35, pre COVID-19 [9, 15]","peptide-specific response, donor HH-N12-36, post COVID-19 [9, 16]","peptide-specific response, donor HH-N12-36, pre COVID-19 [9, 17]","peptide-specific response, donor HH-N12-37, post COVID-19 [9, 18]","peptide-specific response, donor HH-N12-37, pre COVID-19 [9, 19]",also measured
CSCC[C@H](NC(=O)[C@H](CO)NC(=O)[C@H](Cc1ccccc1)NC(=O)[C@H](Cc1c[nH]cn1)NC(=O)[C@H](CCCCN)NC(=O)[C@H](CCCNC(=N)N)NC(=O)[C@H](CC(C)C)NC(=O)[C@H](Cc1ccc(O)cc1)NC(=O)[C@H](C)NC(=O)[C@H](Cc1ccc(O)cc1)NC(=O)[C@H](Cc1ccccc1)NC(=O)[C@H](CCC(=O)O)NC(=O)[C@H](CC(N)=O)NC(=O)[C@@H](NC(=O)[C@@H](N)Cc1ccccc1)C(C)C)C(=O)O [NSP12_149],–,–,–,–,–,–,–,–,–,–,IC50 [1]: 8370 nM; IC50 [2]: 2510 nM; IC50 [3]: 36100 nM; IC50 [4]: 828 nM; IC50 [5]: 70 nM; IC50 [6]: 2540 nM; IC50 [7]: 1250 nM; IC50 [8]: 3830 nM
TNCCRFQEKDEDDNL [compound 11],0,0.035,0,0,0,0,0,0,0,0,–
TPGSGVPVVDSYYSL [compound 46],0,0,0,0,0,0,0,0,0,0,–
TSTDVVYRAFDIYND [compound 6],0,0,0,0,0,0,0,0,0,0,–
VAKHDFFKFRIDGDM [compound 20],0,0,0,0,0,0,0,0,0,0,–
VASIKNFKSVLYYQN [compound 156],–,–,–,–,–,–,–,–,–,–,"peptide-specific T-cell response, donor HH-N12-18, post COVID-19 ([9]; donor HH-N12-18, sample post COVID-19, single NSP12 15-mer peptide, 0 = no response): 0; peptide-specific T-cell response, donor HH-N12-18, pre COVID-19 ([9]; donor HH-N12-18, sample pre COVID-19, single NSP12 15-mer peptide, 0 = no response): 0; peptide-specific T-cell response, donor HH-N12-34, post COVID-19 ([9]; donor HH-N12-34, sample post COVID-19, single NSP12 15-mer peptide, 0 = no response): 0.025; peptide-specific T-cell response, donor HH-N12-34, pre COVID-19 ([9]; donor HH-N12-34, sample pre COVID-19, single NSP12 15-mer peptide, 0 = no response): 0; peptide-specific T-cell response, donor HH-N12-35, post COVID-19 ([9]; donor HH-N12-35, sample post COVID-19, single NSP12 15-mer peptide, 0 = no response): 0; peptide-specific T-cell response, donor HH-N12-35, pre COVID-19 ([9]; donor HH-N12-35, sample pre COVID-19, single NSP12 15-mer peptide, 0 = no response): 0; peptide-specific T-cell response, donor HH-N12-36, post COVID-19 ([9]; donor HH-N12-36, sample post COVID-19, single NSP12 15-mer peptide, 0 = no response): 0; peptide-specific T-cell response, donor HH-N12-36, pre COVID-19 ([9]; donor HH-N12-36, sample pre COVID-19, single NSP12 15-mer peptide, 0 = no response): 0; peptide-specific T-cell response, donor HH-N12-37, post COVID-19 ([9]; donor HH-N12-37, sample post COVID-19, single NSP12 15-mer peptide, 0 = no response): 0; peptide-specific T-cell response, donor HH-N12-37, pre COVID-19 ([9]; donor HH-N12-37, sample pre COVID-19, single NSP12 15-mer peptide, 0 = no response): 0"
VPVVDSYYSLLMPIL [compound 47],0.082,0,0,0,0.02,0,0,0,0,0,–
VVKRHTFSNYQHEET [compound 15],0,0,0,0,0,0,0,0,0,0,–
VYRAFDIYNDKVAGF [compound 7],0,0,0,0,0,0,0,0,0,0,–
WYDFGDFIQTTPGSG [compound 44],0,0,0,0,0,0,0,0,0,0.05,–
YFKYWDQTYHPNCVN [compound 58],0,0,0,0,0,0,0,0.041,0,0.11,–
YSDVENPHLMGWDYP [compound 122],0,0,0,0,0,0,0,0,0,0,–
